Results as given in ChEMBL document CHEMBL1649305, “Novel protease inhibitors (PIs) containing macrocyclic components and 3(R),3a(S),6a(R)-bis-tetrahydrofuranylurethane that are potent against multi-PI-resistant HIV-1 variants in vitro” (Antimicrob Agents Chemother, 2010).
Calls of active or inactive are those of the source. No cut-off for these calls is given here.

Experiments:
[1] = test system: Human immunodeficiency virus 1; assay: Antiviral activity against HIV1 LAI infected in human MT2 cells by MTT assay; format: functional, organism-based; settings: Human immunodeficiency virus 1, LAI
[2] = test system: Human immunodeficiency virus 2; assay: Antiviral activity against HIV2 EHO infected in human MT2 cells by MTT assay; format: functional, organism-based; settings: Human immunodeficiency virus 2, EHO
[3] = test system: Human immunodeficiency virus 2; assay: Antiviral activity against HIV2 ROD infected in human MT2 cells by MTT assay; format: functional, organism-based; settings: Human immunodeficiency virus 2, ISOLATE ROD
[4] = Cytotoxicity against human MT2 cells after 7 days by MTT assay; format: cell-based
MT2 [5] = assay: Ratio of EC50 for HIV2 EHO to EC50 for HIV1 LAI infected in human MT2 cells; format: functional
MT2 [6] = assay: Ratio of EC50 for HIV2 ROD to EC50 for HIV1 LAI infected in human MT2 cells; format: functional
[7] = test system: Human immunodeficiency virus 1; assay: Antiviral activity against HIV1 expressing protease L10F/D30N/K45I/A71V/T74S mutant infected in human MT4 cells selected at 5 uM of nelfinavir by MTT assay; format: functional, organism-based; settings: Human immunodeficiency virus 1, MT4
[8] = test system: Human immunodeficiency virus 1; assay: Antiviral activity against HIV1 NL4-3 infected in human MT4 cells at 1 uM after 20 passages by MTT assay; format: functional, organism-based
[9] = test system: Human immunodeficiency virus 1; assay: Antiviral activity against HIV1 NL4-3 infected in human MT4 cells at 1 uM after 33 passages by MTT assay; format: functional, organism-based
[10] = test system: Human immunodeficiency virus 1; assay: Antiviral activity against HIV1 NL4-3 infected in human MT4 cells at 1 uM after 37 passages by MTT assay; format: functional, organism-based
[11] = test system: Human immunodeficiency virus 1; assay: Antiviral activity against HIV1 NL4-3 infected in human MT4 cells after 50 passages by MTT assay; format: functional, organism-based
[12] = test system: Human immunodeficiency virus 1; assay: Antiviral activity against HIV1 expressing protease L10I/L24I/M46I/V82I/I84V mutant infected in human MT4 cells selected after 50 passages of GRL-216 by MTT assay; format: functional, organism-based; settings: Human immunodeficiency virus 1, MT4
[13] = test system: Human immunodeficiency virus 1; assay: Antiviral activity against HIV1 expressing protease L10F/M46I/T91S mutant infected in human MT4 cells selected at 1 uM of GRL-246 by MTT assay; format: functional, organism-based; settings: Human immunodeficiency virus 1, MT4
[14] = test system: Human immunodeficiency virus 1; assay: Antiviral activity against HIV1 expressing protease L10F/M46L/I50V/A71Vmutant infected in human MT4 cells selected at 1 uM of GRL-286 by MTT assay; format: functional, organism-based; settings: Human immunodeficiency virus 1, MT4
[15] = test system: Human immunodeficiency virus 1; assay: Antiviral activity against HIV1 expressing protease L10F/M46M,I/Q61Q mutant infected in human MT4 cells selected at 1 uM of GRL-396 by MTT assay; format: functional, organism-based; settings: Human immunodeficiency virus 1, MT4
[16] = test system: Human immunodeficiency virus 1; assay: Antiviral activity against wild type HIV1 NL4-3 infected in human MT4 cells by p24 Gag protein production inhibition assay; settings: Human immunodeficiency virus 1, NL4-3, MT4
[17] = test system: Human immunodeficiency virus 1; assay: Antiviral activity against wild type HIV1 ERS104 containing protease L63P mutant infected in human PHA-PBMC cells by p24 Gag protein production inhibition assay; settings: Human immunodeficiency virus 1, ERS104, PBMC
[18] = test system: Human immunodeficiency virus 1; assay: Antiviral activity against HIV1 expressing protease L10F/M46I/I54V/V82A mutant infected in human MT4 cells selected at 5 uM of Lopinavir by p24 Gag protein production inhibition assay; settings: Human immunodeficiency virus 1, MT4
[19] = test system: Human immunodeficiency virus 1; assay: Antiviral activity against HIV1 expressing protease L10I/G48V/I54V/A71V/I84V/L90M mutant infected in human MT4 cells selected at 5 uM of saquinavir by p24 Gag protein production inhibition assay; settings: Human immunodeficiency virus 1, MT4
[20] = test system: Human immunodeficiency virus 1; assay: Antiviral activity against HIV1 expressing protease L10F/M46I/I50V/A71V/I84V/L90M mutant infected in human MT4 cells selected at 5 uM of amprenavir by p24 Gag protein production inhibition assay; settings: Human immunodeficiency virus 1, MT4
[21] = test system: Human immunodeficiency virus 1; assay: Antiviral activity against HIV1 expressing protease L23I/E34Q/K43I/M46I/I50L/G51A/L63P/A71V/V82A/T91A mutant infected in human MT4 cells selected at 5 uM of atazanavir by p24 Gag protein production inhibition assay; settings: Human immunodeficiency virus 1, MT4
[22] = test system: Human immunodeficiency virus 1; assay: Antiviral activity against multidrug-resistant HIV1 isolate MM containing L10I, K43T, M46L, I54V, L63P, A71V, V82A, L90M, and Q92K mutant infected in human PHA-PBMC cells by p24 Gag protein production inhibition assay; settings: Human immunodeficiency virus 1, isolate MM
[23] = test system: Human immunodeficiency virus 1; assay: Antiviral activity against multidrug-resistant HIV1 isolate TM containing L10I, K14R, R41K, M46L, I54V, L63P, A71V, V82A, L90M, and I93L mutant infected in human PHA-PBMC cells by p24 Gag protein production inhibition assay; settings: Human immunodeficiency virus 1, isolate TM
[24] = test system: Human immunodeficiency virus 1; assay: Antiviral activity against multidrug-resistant HIV1 isolate G containing L10I, V11I, T12E, I15V, L19I,R41K, M46L, L63P, A71T, V82A, and L90M mutant infected in human PHA-PBMC cells by p24 Gag protein production inhibition assay; settings: Human immunodeficiency virus 1, isolate G
[25] = test system: Human immunodeficiency virus 1; assay: Antiviral activity against multidrug-resistant HIV1 isolate C containing protease L10I, I15V, K20R, L24I, M36I, M46L, I54V, I62V, L63P, K70Q, V82A, and L89M mutant infected in human PHA-PBMC cells by p24 Gag protein production inhibition assay; settings: Human immunodeficiency virus 1, isolate C
[26] = test system: Human immunodeficiency virus 1; assay: Antiviral activity against multidrug-resistant HIV1 isolate JSL containing L10I, L24I, I33F, E35D, M36I, N37S, M46L, I54V, R57K, I62V, L63P, A71V, G73S, and V82A mutant infected in human PHA-PBMC cells by p24 Gag protein production inhibition assay; settings: Human immunodeficiency virus 1, isolate JSL
[27] = test system: Human immunodeficiency virus 1; assay: Antiviral activity against multidrug-resistant HIV1 isolate B containing protease L10I, K14R, L33I, M36I,M46I, F53I, K55R, I62V, L63P, A71V, G73S, V82A, L90M, and I93L mutant infected in human PHA-PBMC cells by p24 Gag protein production inhibition assay; settings: Human immunodeficiency virus 1, isolate B
[28] = test system: Human immunodeficiency virus 1; assay: Antiviral activity against HIV1 NL4-3 infected in human MT4 cells at 0.26 uM after 50 passages by MTT assay; format: functional, organism-based
[29] = test system: Human immunodeficiency virus type 1 protease (Human immunodeficiency virus 1), Q72874 [L24I,V82I,I84V]; assay: Inhibition of protease L24I/V82I/I84V[…] dimerization in HIV1 infected in COS7 cells at 0.1 uM by FRET based assay; format: cell-based; settings: COS-7
[30] = target: Protease (Human immunodeficiency virus 1) (UniProt Q9YQ12); assay: Inhibition of protease dimerization in HIV1 infected in COS7 cells at 0.1 uM by FRET based assay; format: cell-based; settings: COS-7

## CC(C)CN(C[C@@H](O)[C@H](Cc1ccccc1)NC(=O)O[C@H]1CCOC1)S(=O)(=O)c1ccc(N)cc1
[1]
  EC50: 24 nM
[2]
  EC50: 120 nM
[3]
  EC50: 420 nM
[4]
  CC50 at 168 h: > 100000 nM
MT2 [5]
  Ratio EC50: 3.53
MT2 [6]
  Ratio EC50: 12.3
[7]
  EC50: 28 nM
[8]
  Activity: inactive
[9]
  Activity: inactive
[10]
  Activity: inactive
[11]
  Activity: inactive
[12]
  EC50: 260 nM
[13]
  EC50: 340 nM
[14]
  EC50: > 1000 nM
[15]
  EC50: 350 nM
[16]
  EC50: 34 nM
[17]
  EC50: 30 nM
[18]
  EC50: 260 nM
[19]
  EC50: 180 nM
[20]
  EC50: > 1000 nM
[21]
  EC50: 280 nM
[22]
  EC50: 210 nM
[23]
  EC50: 320 nM
[24]
  EC50: 430 nM
[25]
  EC50: 370 nM
[26]
  EC50: 620 nM
[27]
  EC50: > 1000 nM

## COc1ccc2c(c1)OCC/C=C\CCCCN(C[C@@H](O)[C@H](Cc1ccccc1)NC(=O)O[C@H]1CO[C@H]3OCC[C@H]31)S2(=O)=O
[1]
  EC50: 2 nM
[2]
  EC50: 10 nM
[3]
  EC50: 17 nM
[4]
  CC50 at 168 h: 48800 nM
[7]
  EC50: 40 nM
[28]
  Activity: Active
[12]
  EC50: 94 nM
[13]
  EC50: 300 nM
[14]
  EC50: > 1000 nM
[15]
  EC50: 73 nM
[29]
  inhibition: Active
[30]
  inhibition: Active
[16]
  EC50: 5 nM
[17]
  EC50: 5 nM
[18]
  EC50: 35 nM
[19]
  EC50: 20 nM
[20]
  EC50: > 1000 nM
[21]
  EC50: 23 nM
[22]
  EC50: 33 nM
[23]
  EC50: 27 nM
[24]
  EC50: 57 nM
[25]
  EC50: 44 nM
[26]
  EC50: 73 nM
[27]
  EC50: 37 nM
